ChEMBL document CHEMBL4354856, “Discovery of 4,6-O-Thenylidene-β-d-glucopyranoside-(2″-acetamido, 3″-acetyl-di-S-5-fluorobenzothizole/5-fluorobenzoxazole)-4'-demethylepipodophyllotoxin as Potential Less Toxic Antitumor Candidate Drugs by Reducing DNA Damage and Less Inhibition of PI3K” (J Med Chem, 2020)

Key:
L02 = experiment: Cytotoxicity against human HL7702 cells assessed as inhibition of cell proliferation measured after 48 hrs by MTT assay; type: cell-based; conditions: L02, 48 h
A549 = experiment: Anticancer activity against human A549 cells assessed as inhibition of cell proliferation measured after 48 hrs by MTT assay; type: functional, cell-based; conditions: A549, 48 h
HepG2 = experiment: Anticancer activity against human HepG2 cells assessed as inhibition of cell proliferation measured after 48 hrs by MTT assay; type: functional, cell-based; conditions: HepG2, 48 h
[1] = Cytotoxicity against human H8 cells assessed as inhibition of cell proliferation measured after 48 hrs by MTT assay; type: cell-based
HeLa = experiment: Anticancer activity against human HeLa cells assessed as inhibition of cell proliferation measured after 48 hrs by MTT assay; type: functional, cell-based
HMEC = experiment: Cytotoxicity against human HMEC cells assessed as inhibition of cell proliferation measured after 48 hrs by MTT assay; type: cell-based
MRC5 = experiment: Cytotoxicity against human MRC5 cells assessed as inhibition of cell proliferation measured after 48 hrs by MTT assay; type: cell-based; conditions: MRC5, 48 h
MCF7 = experiment: Anticancer activity against human MCF7 cells assessed as inhibition of cell proliferation measured after 48 hrs by MTT assay; type: functional, cell-based; conditions: MCF7, 48 h

SMILES	IC50 (L02)	IC50 (A549)	IC50 (HepG2)	IC50 [1]	IC50 (HeLa)	IC50 (HMEC)	IC50 (MRC5)	IC50 (MCF7)
COc1cc([C@@H]2c3cc4c(cc3[C@@H](O[C@@H]3O[C@@H]5CO[C@@H](c6cccs6)O[C@H]5[C@H](OC(=O)CSc5nc6cc(F)ccc6o5)[C@H]3OC(=O)CSc3nc5cc(F)ccc5o3)[C@H]3COC(=O)[C@H]23)OCO4)cc(OC)c1O	20.4 µM	11.5 µM	15.6 µM	20.4 µM	50.3 µM	23.4 µM	25.4 µM	30.5 µM
COc1cc([C@@H]2c3cc4c(cc3[C@@H](O[C@@H]3O[C@@H]5CO[C@@H](c6cccs6)O[C@H]5[C@H](O)[C@H]3NC(=O)CSc3nc5cc(F)ccc5s3)[C@H]3COC(=O)[C@H]23)OCO4)cc(OC)c1O	156 µM	122 µM	120 µM	140 µM	134 µM	160 µM	123 µM	142 µM
COc1cc([C@@H]2c3cc4c(cc3[C@@H](O[C@@H]3O[C@@H]5CO[C@@H](c6cccs6)O[C@H]5[C@H](OC(=O)CSc5nc6cc(F)ccc6s5)[C@H]3OC(=O)CSc3nc5cc(F)ccc5s3)[C@H]3COC(=O)[C@H]23)OCO4)cc(OC)c1O	22.1 µM	118 µM	38.4 µM	20.3 µM	172 µM	24.6 µM	25.6 µM	151 µM
COc1cc([C@@H]2c3cc4c(cc3[C@@H](O[C@@H]3O[C@@H]5CO[C@@H](c6cccs6)O[C@H]5[C@H](OC(=O)CSc5nc6cc(F)ccc6s5)[C@H]3O)[C@H]3COC(=O)[C@H]23)OCO4)cc(OC)c1O	16.4 µM	3.5 µM	2.7 µM	17.4 µM	2.5 µM	14.3 µM	14.3 µM	5.6 µM
COc1cc([C@@H]2c3cc4c(cc3[C@@H](O[C@@H]3O[C@@H]5CO[C@@H](c6cccs6)O[C@H]5[C@H](O)[C@H]3OC(=O)CSc3nc5cc(F)ccc5s3)[C@H]3COC(=O)[C@H]23)OCO4)cc(OC)c1O	18.5 µM	1.1 µM	2 µM	22.5 µM	1.5 µM	13.5 µM	12.4 µM	3.9 µM
